Experimental data published in patent US20220010019A1, “Targeting intraepithelial lymphocytes for treatment of metabolic syndrome” (The General Hospital Corporation, priority 2018, published 2022).

Tested on: Ldlr−/− mice
Assay: Atherosclerotic lesion quantification in HCD-fed Ldlr−/− mice, Glp1r agonist treatment
Format: in vivo
Settings: 8 weeks on HCD, 100 μg per kg per day via osmotic minipumps, vs PBS
Experimental: Glp1r agonist treatment. Ldlr−/− mice were treated with the Glp1r agonist exendin-4 (Abcam) at a dose of 100 μg per kg per day via osmotic minipumps (Alzet). After 8 weeks on a HCD, mice were euthanized for atherosclerotic lesion quantification.
Adipose tissue. iWAT and pWAT were excised, fixed in 10% formalin solution and paraffin-embedded. Haematoxylin and eosin staining was performed to assess overall tissue morphology. The adipocyte size distribution was determined with the NIH ImageJ program. Aortas. Aortic roots were dissected, embedded in Tissue-Tek OCT compound (Sakura Finetek) and frozen in 2-methylbutane (Fisher Scientific) cooled with dry ice. For comparisons of lesion sizes between the groups, sections with the maximum lesion area were used. To measure lesion volume, sections were collected at the first appearance of the aortic valves until lesions were no longer visible. Oil red O staining (Sigma-Aldrich) was performed to visualize lipid content and the lesion size was measured. To quantify lesion macrophage and smooth muscle cell content, immunohistochemistry was performed with anti-CD68 (BioLegend) and anti-Myh11 (Millipore) antibodies. […] To quantify collagen content, Masson trichrome staining (Sigma-Aldrich) was performed.

**Q.** How did the “atherosclerosis (plaque size, oil-red O-stained aortas)” value turn out when exendin-4 was run?
**A.** attenuated atherosclerosis
